Results as given in ChEMBL document CHEMBL3608226, “Synthesis and biological evaluation of phaitanthrin congeners as anti-mycobacterial agents” (2015).
Converted amounts (≈) assume the structure as drawn.

The compounds below were run on Mycobacterium avium (assay: Antimycobacterial activity against Mycobacterium avium). Conditions: not given.
Type: functional
Compound `O=C1c2ccccc2-n2c1nc1ccccc1c2=O` [TRYPTANTHRIN] has an MIC of 4 mg/L (≈ 16.1 µM).

These compounds were tested on Mycobacterium tuberculosis (assay: Antimycobacterial activity against Mycobacterium tuberculosis H37Rv ATCC 27294 after 28 days by agar dilution method). Conditions: H37Rv ATCC 27294, 672 h.
Type: functional
For `O=c1c2ccccc2[nH]c2c(-c3c(-c4ccccc4)[nH]c4ccccc34)c3ccccc3n12`, the MIC was 8.58 µM (≈ 3.65 µg/mL). In the case of `O=c1c2ccccc2[nH]c2c(-c3c(-c4ccccc4O)[nH]c4ccccc34)c3ccccc3n12`, the MIC is reported as 29.4 µM (≈ 13 µg/mL). For `N#Cc1ccc(-c2[nH]c3ccccc3c2-c2c3ccccc3n3c(=O)c4ccccc4[nH]c23)cc1`, the MIC was 7.06 µM (≈ 3.18 µg/mL). Compound `O=c1c2ccccc2[nH]c2c(-c3c(-c4ccc(F)cc4)[nH]c4ccccc34)c3ccccc3n12` has an MIC of 27.7 µM (≈ 12.3 µg/mL). In the case of `O=c1c2ccccc2[nH]c2c(-c3c(-c4ccc(Br)cc4)[nH]c4ccccc34)c3ccccc3n12`, the MIC is reported as 56.4 µM (≈ 28.5 µg/mL). In the case of `Nc1ccccc1-c1[nH]c2ccccc2c1-c1c2ccccc2n2c(=O)c3ccccc3[nH]c12`, the MIC is reported as 6.18 µM (≈ 2.72 µg/mL). Compound `O=c1c2ccccc2[nH]c2c(-c3c(-c4cccs4)[nH]c4ccccc34)c3ccccc3n12` has an MIC of 7.3 µM (≈ 3.15 µg/mL). `CCc1ccc(-c2[nH]c3ccccc3c2-c2c3ccccc3n3c(=O)c4ccccc4[nH]c23)cc1` was tested, and the MIC was 12.3 µM (≈ 5.59 µg/mL). In the case of `Nc1ccc(-c2[nH]c3ccccc3c2-c2c3ccccc3n3c(=O)c4ccccc4[nH]c23)cc1`, the MIC is reported as 14.2 µM (≈ 6.24 µg/mL). Work on `O=C(CC1(O)c2ccccc2-c2nc3ccccc3nc21)c1ccc(Br)cc1` (racemic) yielded an MIC of 14.4 µM (≈ 6.22 µg/mL). In the case of `Nc1ccccc1C(=O)CC1(O)c2ccccc2-c2nc3ccccc3nc21` (racemic), the MIC is reported as 17 µM (≈ 6.25 µg/mL). `Nc1ccc(C(=O)CC2(O)c3ccccc3-c3nc4ccccc4nc32)cc1` (racemic) showed an MIC of 8.45 µM (≈ 3.1 µg/mL). `Brc1ccc(C2=NN(c3ccccc3)C3(C2)c2ccccc2-c2nc4ccccc4nc23)cc1` (racemic) gave an MIC of 12.4 µM (≈ 6.25 µg/mL). `Nc1ccccc1C1=NN(c2ccccc2)C2(C1)c1ccccc1-c1nc3ccccc3nc12` (racemic) gave an MIC of 56.9 µM (≈ 25 µg/mL). With `Nc1ccc(C2=NN(c3ccccc3)C3(C2)c2ccccc2-c2nc4ccccc4nc23)cc1` (racemic) the MIC was 7.17 µM (≈ 3.15 µg/mL). In the case of `O=C(CC1(O)c2ccccc2-n2c1nc1ccccc1c2=O)c1ccccc1O` (racemic), the MIC is reported as 16.2 µM (≈ 6.24 µg/mL). In the case of `N#Cc1ccc(C(=O)CC2(O)c3ccccc3-n3c2nc2ccccc2c3=O)cc1` (racemic), the MIC is reported as 15.9 µM (≈ 6.26 µg/mL). `O=C(CC1(O)c2ccccc2-n2c1nc1ccccc1c2=O)c1ccc(F)cc1` (racemic) was tested, and the MIC was 8.85 µM (≈ 3.42 µg/mL). `O=C(CC1(O)c2ccccc2-n2c1nc1ccccc1c2=O)c1ccc(Br)cc1` (racemic) showed an MIC of 112 µM (≈ 50 µg/mL). `Nc1ccccc1C(=O)CC1(O)c2ccccc2-n2c1nc1ccccc1c2=O` (racemic) showed an MIC of 3.99 µM (≈ 1.53 µg/mL). `O=C(CC1(O)c2ccccc2-n2c1nc1ccccc1c2=O)c1cccs1` (racemic) showed an MIC of 16.7 µM (≈ 6.25 µg/mL). Compound `CCc1ccc(C(=O)CC2(O)c3ccccc3-n3c2nc2ccccc2c3=O)cc1` (racemic) has an MIC of 7.88 µM (≈ 3.12 µg/mL). `Nc1ccc(C(=O)CC2(O)c3ccccc3-n3c2nc2ccccc2c3=O)cc1` (racemic) was tested, and the MIC was 16.3 µM (≈ 6.26 µg/mL). `O=C(CC1(O)c2cccc(Br)c2-n2c1nc1ccccc1c2=O)c1ccc(Br)cc1` (racemic) showed an MIC of 11.9 µM (≈ 6.24 µg/mL). `O=C(CC1(O)c2ccccc2-n2c1nc1ccccc1c2=O)c1ccccc1NC(=S)Nc1ccc([N+](=O)[O-])cc1` (racemic) gave an MIC of 5.98 µM (≈ 3.37 µg/mL). `O=C(CC1(O)c2ccccc2-n2c1nc1ccccc1c2=O)c1ccccc1` (racemic) showed an MIC of 16.9 µM (≈ 6.23 µg/mL). In the case of `O=C(O)c1cn(C2CC2)c2cc(N3CCNCC3)c(F)cc2c1=O` [CIPROFLOXACIN], the MIC is reported as 12.6 µM (≈ 4.17 µg/mL). For `CC[C@@H](CO)NCCN[C@@H](CC)CO` [ETHAMBUTOL], the MIC was 15.3 µM (≈ 3.13 µg/mL).

What follows are compounds tested on Mycobacterium tuberculosis (assay: Antimycobacterial activity against Mycobacterium tuberculosis H37Rv). Conditions: not given.
Type: functional
`O=C1c2ccccc2-n2c1nc1ccccc1c2=O` [TRYPTANTHRIN] was tested, and the MIC was 1 mg/L (≈ 4.03 µM).

These compounds were tested on Mycolicibacterium smegmatis (assay: Antimycobacterial activity against Mycobacterium smegmatis). Conditions: not given.
Type: functional
In the case of `O=C1c2ccccc2-n2c1nc1ccccc1c2=O` [TRYPTANTHRIN], the MIC is reported as 6 mg/L (≈ 24.2 µM).
